Assays:
[1] = target: Tyrosine-protein kinase BTK (Homo sapiens) (UniProt Q06187); assay: Inhibition of BTK at 10 uM
[2] = target: PAS domain-containing serine/threonine-protein kinase (Homo sapiens) (UniProt Q96RG2); assay: Inhibition of PASK at 10 uM
[3] = target: Tyrosine-protein kinase Blk (Homo sapiens) (UniProt P51451); assay: Inhibition of BLK at 10 uM
[4] = system: Mast/stem cell growth factor receptor Kit (Homo sapiens), P10721 [V654A]; assay: Inhibition of KIT V654A mutant at 10 uM
[5] = target: Protein kinase C iota type (Homo sapiens) (UniProt P41743); assay: Inhibition of PKCi at 10 uM
[6] = target: Tyrosine-protein kinase FRK (Homo sapiens) (UniProt P42685); assay: Inhibition of FRK at 10 uM
[7] = target: Dual specificity tyrosine-phosphorylation-regulated kinase 3 (Homo sapiens) (UniProt O43781); assay: Inhibition of DYRK3 at 10 uM
[8] = target: Calcium/calmodulin-dependent protein kinase type 1 (Homo sapiens) (UniProt Q14012); assay: Inhibition of CaMK1alpha at 10 uM
[9] = target: Ephrin type-B receptor 2 (Homo sapiens) (UniProt P29323); assay: Inhibition of EPHB2 at 10 uM
[10] = target: T1, Dual specificity tyrosine-phosphorylation-regulated kinase 2 (Homo sapiens, UniProt Q92630)
T1 sequence (Q92630 whole entry): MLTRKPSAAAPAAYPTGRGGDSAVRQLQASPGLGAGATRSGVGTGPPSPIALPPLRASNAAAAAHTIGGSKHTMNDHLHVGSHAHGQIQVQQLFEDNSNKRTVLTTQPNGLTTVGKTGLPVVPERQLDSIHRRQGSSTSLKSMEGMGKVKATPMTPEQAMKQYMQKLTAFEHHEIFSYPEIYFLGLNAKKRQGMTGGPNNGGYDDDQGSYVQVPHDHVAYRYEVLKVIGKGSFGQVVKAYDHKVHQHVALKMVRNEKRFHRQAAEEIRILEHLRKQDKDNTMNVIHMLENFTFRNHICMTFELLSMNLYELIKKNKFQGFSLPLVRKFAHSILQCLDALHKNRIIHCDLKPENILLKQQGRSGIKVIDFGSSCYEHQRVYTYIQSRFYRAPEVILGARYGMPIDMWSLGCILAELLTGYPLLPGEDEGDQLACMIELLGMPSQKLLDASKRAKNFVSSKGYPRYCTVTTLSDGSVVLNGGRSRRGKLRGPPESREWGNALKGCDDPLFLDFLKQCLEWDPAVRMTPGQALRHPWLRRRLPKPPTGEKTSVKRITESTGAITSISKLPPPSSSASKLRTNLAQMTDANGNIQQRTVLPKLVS

[11] = target: Serine/threonine-protein kinase PAK 2 (Homo sapiens) (UniProt Q13177); assay: Inhibition of PAK2 at 10 uM
[12] = target: Dual specificity protein kinase CLK1 (Homo sapiens) (UniProt P49759); details: 10 uM
[13] = target: Proto-oncogene tyrosine-protein kinase Src (Homo sapiens) (UniProt P12931); assay: Inhibition of SRC at 10 uM
[14] = target: Tyrosine-protein kinase Fgr (Homo sapiens) (UniProt P09769); assay: Inhibition of FGR at 10 uM
[15] = target: Mast/stem cell growth factor receptor Kit (Homo sapiens) (UniProt P10721); assay: Inhibition of KIT at 10 uM
[16] = target: Tyrosine-protein kinase Yes (Homo sapiens) (UniProt P07947); assay: Inhibition of YES at 10 uM
Tyrosine-protein kinase Yes (Homo sapiens), sequence (P07947 2-543 limits assumed): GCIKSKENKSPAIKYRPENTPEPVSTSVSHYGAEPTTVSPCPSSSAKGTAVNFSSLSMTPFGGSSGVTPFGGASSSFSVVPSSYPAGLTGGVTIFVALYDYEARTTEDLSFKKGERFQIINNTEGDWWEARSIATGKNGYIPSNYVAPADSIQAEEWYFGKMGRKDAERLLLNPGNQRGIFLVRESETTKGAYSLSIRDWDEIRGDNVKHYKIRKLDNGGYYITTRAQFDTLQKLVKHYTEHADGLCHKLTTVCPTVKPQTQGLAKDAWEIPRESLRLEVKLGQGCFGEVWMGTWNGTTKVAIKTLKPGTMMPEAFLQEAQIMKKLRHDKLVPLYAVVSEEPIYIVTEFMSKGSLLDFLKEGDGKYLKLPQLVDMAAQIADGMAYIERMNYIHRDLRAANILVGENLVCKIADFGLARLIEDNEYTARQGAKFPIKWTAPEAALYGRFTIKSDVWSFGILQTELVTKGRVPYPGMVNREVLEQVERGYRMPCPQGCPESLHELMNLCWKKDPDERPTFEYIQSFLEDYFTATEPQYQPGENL

[17] = target: Protein kinase C delta type (Homo sapiens) (UniProt Q05655); assay: Inhibition of PKCdelta at 10 uM
[18] = target: Dual specificity mitogen-activated protein kinase kinase 3 (Homo sapiens) (UniProt P46734); assay: Inhibition of MAP2K3 at 10 uM
[19] = target: Aurora kinase A (Homo sapiens) (UniProt O14965); assay: Inhibition of AurA at 10 uM
Aurora kinase A (Homo sapiens), sequence (O14965 whole entry): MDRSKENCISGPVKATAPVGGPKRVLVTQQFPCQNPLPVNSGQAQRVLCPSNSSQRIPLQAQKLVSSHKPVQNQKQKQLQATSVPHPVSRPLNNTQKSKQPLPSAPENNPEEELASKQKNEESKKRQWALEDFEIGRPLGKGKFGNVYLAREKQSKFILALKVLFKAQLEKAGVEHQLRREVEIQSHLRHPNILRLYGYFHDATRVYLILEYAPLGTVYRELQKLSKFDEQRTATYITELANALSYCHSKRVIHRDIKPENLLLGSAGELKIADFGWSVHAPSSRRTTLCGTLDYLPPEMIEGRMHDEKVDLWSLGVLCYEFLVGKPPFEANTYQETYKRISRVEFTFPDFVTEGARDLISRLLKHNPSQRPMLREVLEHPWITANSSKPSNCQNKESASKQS

[20] = target: Tyrosine-protein kinase ITK/TSK (Homo sapiens) (UniProt Q08881); assay: Inhibition of ITK at 10 uM
[21] = target: Ribosomal protein S6 kinase alpha-6 (Homo sapiens) (UniProt Q9UK32); assay: Inhibition of RSK4 N-terminal at 10 uM
[22] = target: Serine/threonine-protein kinase TAO2 (Homo sapiens) (UniProt Q9UL54); assay: Inhibition of TAOK2 at 10 uM
[23] = target: Tyrosine-protein kinase Mer (Homo sapiens) (UniProt Q12866); assay: Inhibition of MER at 10 uM
Tyrosine-protein kinase Mer (Homo sapiens), sequence (Q12866 whole entry): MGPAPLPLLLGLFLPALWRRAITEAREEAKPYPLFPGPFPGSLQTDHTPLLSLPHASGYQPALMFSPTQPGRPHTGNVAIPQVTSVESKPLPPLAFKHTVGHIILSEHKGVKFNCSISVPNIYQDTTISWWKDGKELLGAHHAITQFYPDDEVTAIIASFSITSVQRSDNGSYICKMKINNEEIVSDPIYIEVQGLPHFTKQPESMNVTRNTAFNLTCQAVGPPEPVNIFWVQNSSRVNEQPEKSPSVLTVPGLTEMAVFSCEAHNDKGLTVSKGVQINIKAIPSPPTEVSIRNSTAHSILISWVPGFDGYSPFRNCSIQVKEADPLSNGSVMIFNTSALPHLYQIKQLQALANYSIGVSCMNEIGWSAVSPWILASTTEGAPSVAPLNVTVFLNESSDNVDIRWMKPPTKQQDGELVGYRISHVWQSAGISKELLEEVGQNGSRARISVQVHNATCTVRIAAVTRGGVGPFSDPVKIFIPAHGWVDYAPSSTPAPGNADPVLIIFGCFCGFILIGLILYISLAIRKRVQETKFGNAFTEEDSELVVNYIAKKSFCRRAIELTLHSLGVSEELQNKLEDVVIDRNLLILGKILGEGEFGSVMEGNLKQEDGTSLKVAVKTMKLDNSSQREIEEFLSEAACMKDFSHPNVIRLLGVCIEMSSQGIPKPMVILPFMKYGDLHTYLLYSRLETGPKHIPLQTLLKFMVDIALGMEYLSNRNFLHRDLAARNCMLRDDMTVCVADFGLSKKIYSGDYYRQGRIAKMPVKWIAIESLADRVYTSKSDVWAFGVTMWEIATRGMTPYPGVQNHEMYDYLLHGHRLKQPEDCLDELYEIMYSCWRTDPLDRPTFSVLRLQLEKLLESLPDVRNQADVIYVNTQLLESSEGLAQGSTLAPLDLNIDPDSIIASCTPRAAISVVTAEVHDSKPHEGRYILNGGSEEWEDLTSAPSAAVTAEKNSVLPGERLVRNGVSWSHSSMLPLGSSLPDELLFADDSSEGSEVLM

[24] = target: Citron Rho-interacting kinase (Homo sapiens) (UniProt O14578); assay: Inhibition of CRIK at 10 uM
Citron Rho-interacting kinase (Homo sapiens), sequence (O14578 whole entry): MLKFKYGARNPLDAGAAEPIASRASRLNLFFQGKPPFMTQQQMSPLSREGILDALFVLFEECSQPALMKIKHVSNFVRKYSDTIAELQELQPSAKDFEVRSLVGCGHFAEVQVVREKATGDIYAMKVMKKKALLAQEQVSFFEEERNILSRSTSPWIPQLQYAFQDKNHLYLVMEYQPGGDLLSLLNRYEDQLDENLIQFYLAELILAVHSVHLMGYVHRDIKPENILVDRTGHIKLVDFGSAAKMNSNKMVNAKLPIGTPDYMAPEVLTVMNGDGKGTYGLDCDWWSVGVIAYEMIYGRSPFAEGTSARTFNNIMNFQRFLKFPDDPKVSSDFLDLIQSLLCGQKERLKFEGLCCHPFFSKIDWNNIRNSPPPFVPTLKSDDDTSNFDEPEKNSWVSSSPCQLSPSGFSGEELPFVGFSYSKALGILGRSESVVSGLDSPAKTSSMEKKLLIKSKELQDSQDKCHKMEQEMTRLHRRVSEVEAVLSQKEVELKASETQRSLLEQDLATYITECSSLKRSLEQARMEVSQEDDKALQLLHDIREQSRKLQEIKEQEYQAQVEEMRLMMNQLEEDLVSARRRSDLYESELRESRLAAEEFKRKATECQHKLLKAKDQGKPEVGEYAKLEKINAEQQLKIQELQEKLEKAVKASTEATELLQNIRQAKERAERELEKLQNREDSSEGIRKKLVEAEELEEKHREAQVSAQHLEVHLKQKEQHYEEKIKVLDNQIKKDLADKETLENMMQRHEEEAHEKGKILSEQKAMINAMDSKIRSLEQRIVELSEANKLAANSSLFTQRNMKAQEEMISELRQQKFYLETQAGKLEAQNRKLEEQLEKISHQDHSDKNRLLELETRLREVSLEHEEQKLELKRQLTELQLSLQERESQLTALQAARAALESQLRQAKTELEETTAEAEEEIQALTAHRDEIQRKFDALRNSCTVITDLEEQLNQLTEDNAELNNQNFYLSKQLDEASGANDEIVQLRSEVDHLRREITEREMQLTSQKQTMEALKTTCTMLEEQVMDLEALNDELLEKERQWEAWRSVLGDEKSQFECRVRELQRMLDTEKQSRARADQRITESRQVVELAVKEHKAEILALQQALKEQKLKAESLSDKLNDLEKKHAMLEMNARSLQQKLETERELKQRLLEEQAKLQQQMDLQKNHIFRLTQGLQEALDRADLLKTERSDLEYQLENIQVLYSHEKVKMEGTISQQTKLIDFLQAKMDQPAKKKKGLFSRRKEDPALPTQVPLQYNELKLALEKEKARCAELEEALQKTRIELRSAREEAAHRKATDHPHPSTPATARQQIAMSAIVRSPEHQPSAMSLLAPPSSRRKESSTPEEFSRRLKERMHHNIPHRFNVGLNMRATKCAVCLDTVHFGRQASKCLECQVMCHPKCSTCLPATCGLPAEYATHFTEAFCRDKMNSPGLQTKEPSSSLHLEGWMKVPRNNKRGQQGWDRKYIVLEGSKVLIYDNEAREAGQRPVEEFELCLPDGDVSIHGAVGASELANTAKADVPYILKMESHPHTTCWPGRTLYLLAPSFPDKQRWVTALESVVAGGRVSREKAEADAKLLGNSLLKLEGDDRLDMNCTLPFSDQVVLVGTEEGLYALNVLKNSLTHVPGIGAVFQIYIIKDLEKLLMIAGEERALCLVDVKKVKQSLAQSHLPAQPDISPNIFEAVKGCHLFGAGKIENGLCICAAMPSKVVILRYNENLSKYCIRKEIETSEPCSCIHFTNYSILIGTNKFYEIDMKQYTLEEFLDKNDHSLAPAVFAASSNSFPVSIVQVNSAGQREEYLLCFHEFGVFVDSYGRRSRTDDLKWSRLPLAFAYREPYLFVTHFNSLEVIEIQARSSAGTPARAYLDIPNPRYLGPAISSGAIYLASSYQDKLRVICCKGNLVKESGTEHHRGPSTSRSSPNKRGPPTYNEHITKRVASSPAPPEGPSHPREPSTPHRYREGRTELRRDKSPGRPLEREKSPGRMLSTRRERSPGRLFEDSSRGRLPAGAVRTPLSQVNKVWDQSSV

[25] = target: Serine/threonine-protein kinase Nek9 (Homo sapiens) (UniProt Q8TD19); assay: Inhibition of NEK9 at 10 uM
[26] = target: Protein kinase C zeta type (Homo sapiens) (UniProt Q05513); assay: Inhibition of PKCzeta at 10 uM
[27] = target: MAP kinase-activated protein kinase 2 (Homo sapiens) (UniProt P49137); assay: Inhibition of MAPKAPK2 at 10 uM
[28] = target: Serine/threonine-protein kinase MARK2 (Homo sapiens) (UniProt Q7KZI7); assay: Inhibition of MARK2 at 10 uM
[29] = target: NUAK family SNF1-like kinase 2 (Homo sapiens) (UniProt Q9H093); assay: Inhibition of NuaK2 at 10 uM
[30] = target: Tyrosine-protein kinase Lck (Homo sapiens) (UniProt P06239); assay: Inhibition of LCK at 10 uM
[31] = target: CDK3/cyclin E (Homo sapiens) (UniProt P24864+O96020+Q00526); assay: Inhibition of CDK3-Cyclin E1 at 10 uM; type: protein-complex assay
[32] = target: RAF proto-oncogene serine/threonine-protein kinase (Homo sapiens) (UniProt P04049); assay: Inhibition of RAF1 at 10 uM
RAF proto-oncogene serine/threonine-protein kinase (Homo sapiens), sequence (P04049 whole entry): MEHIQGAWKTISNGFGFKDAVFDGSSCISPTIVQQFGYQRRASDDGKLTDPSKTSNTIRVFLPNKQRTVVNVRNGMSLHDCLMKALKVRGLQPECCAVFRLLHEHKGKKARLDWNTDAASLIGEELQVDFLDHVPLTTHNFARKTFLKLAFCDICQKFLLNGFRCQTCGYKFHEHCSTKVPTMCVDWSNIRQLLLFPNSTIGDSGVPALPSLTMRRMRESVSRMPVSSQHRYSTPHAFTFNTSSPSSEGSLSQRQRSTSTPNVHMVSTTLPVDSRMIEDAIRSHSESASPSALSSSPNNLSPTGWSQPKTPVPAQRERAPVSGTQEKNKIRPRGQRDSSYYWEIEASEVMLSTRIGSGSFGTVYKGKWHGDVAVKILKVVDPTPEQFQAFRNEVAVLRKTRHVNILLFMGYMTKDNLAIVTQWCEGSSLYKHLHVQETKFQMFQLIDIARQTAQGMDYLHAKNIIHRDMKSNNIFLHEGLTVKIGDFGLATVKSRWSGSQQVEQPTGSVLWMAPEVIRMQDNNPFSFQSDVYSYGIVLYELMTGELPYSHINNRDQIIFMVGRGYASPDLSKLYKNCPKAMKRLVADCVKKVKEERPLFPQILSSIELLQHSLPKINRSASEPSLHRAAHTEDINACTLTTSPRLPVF

[33] = target: cAMP-dependent protein kinase catalytic subunit PRKX (Homo sapiens) (UniProt P51817); assay: Inhibition of PRKX at 10 uM
[34] = target: Mitogen-activated protein kinase 12 (Homo sapiens) (UniProt P53778); assay: Inhibition of p38gamma at 10 uM
Mitogen-activated protein kinase 12 (Homo sapiens), sequence (P53778 whole entry): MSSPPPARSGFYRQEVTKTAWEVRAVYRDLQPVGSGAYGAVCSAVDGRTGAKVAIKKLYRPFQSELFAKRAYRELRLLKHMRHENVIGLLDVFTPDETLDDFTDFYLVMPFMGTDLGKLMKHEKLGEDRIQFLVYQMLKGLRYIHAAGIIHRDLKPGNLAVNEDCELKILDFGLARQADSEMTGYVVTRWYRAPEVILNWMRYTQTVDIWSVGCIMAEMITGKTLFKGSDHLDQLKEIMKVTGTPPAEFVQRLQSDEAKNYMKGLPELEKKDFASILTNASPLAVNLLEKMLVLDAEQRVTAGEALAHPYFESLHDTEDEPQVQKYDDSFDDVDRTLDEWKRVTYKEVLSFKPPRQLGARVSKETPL

[35] = target: Mitogen-activated protein kinase kinase kinase 1 (Homo sapiens) (UniProt Q13233); assay: Inhibition of MAP3K1 at 10 uM
[36] = target: Cytoplasmic tyrosine-protein kinase BMX (Homo sapiens) (UniProt P51813); assay: Inhibition of BMX at 10 uM
[37] = target: Homeodomain-interacting protein kinase 3 (Homo sapiens) (UniProt Q9H422); assay: Inhibition of HIPK3 at 10 uM
[38] = target: Ribosomal protein S6 kinase alpha-2 (Homo sapiens) (UniProt Q15349); assay: Inhibition of RSK3 N-terminal at 10 uM

SMILES: COc1ccc2c3ccnc(C(F)(F)F)c3n(CCCCN)c2c1
- inhibition [1]: 0%
- inhibition [2]: 92%
- inhibition [3]: 4%
- inhibition [4]: 5%
- inhibition [5]: 9%
- inhibition [6]: 10%
- inhibition [7]: 97%
- inhibition [8]: 14%
- inhibition [9]: 0%
- IC50 [10]: 15 µM
- inhibition [11]: 13%
- inhibition [12]: 100%
- inhibition [13]: 17%
- inhibition [14]: 11%
- inhibition [15]: 10%
- inhibition [16]: 6%
- inhibition [17]: 68%
- inhibition [18]: 38%
- inhibition [19]: 0%
- inhibition [20]: 7%
- inhibition [21]: 23%
- inhibition [22]: 4%
- inhibition [23]: 35%
- inhibition [24]: 86%
- inhibition [25]: 0%
- inhibition [26]: 35%
- inhibition [27]: 7%
- inhibition [28]: 52%
- inhibition [29]: 27%
- inhibition [30]: 11%
- inhibition [31]: 22%
- inhibition [32]: 0%
- inhibition [33]: 14%
- inhibition [34]: 66%
- inhibition [35]: 0%
- inhibition [36]: 3%
- inhibition [37]: 49%
- inhibition [38]: 36%
